# Experimental data from patent US20240140941A1, “DERIVATIVE OF 2,5-DIKETOPIPERAZINE COMPOUND, AND PREPARATION METHOD THEREFOR, PHARMACEUTICAL COMPOSITION THEREOF AND USE THEREOF” (DALIAN WZ PROBIOTICS AD HEALTH CO., LTD, priority 2020, published 2024).
# Structures can show the parent of a compound that is named as a salt. Where two headings read alike, the source gives them in different places.
# Tests used:
# [1] = Compound solubility experiment, Method 1: equilibrium solubility in pure water, LC-MS; type: physicochemical; conditions: ultrapure water, 37±1° C., shaken 24 hours
# Procedure: Method 1: A 1.5 mL brown EP tube was taken, about 1 mg of compound was weighed respectively, and 1 mL of ultrapure water was added thereto. The mixture was vortexed, and sonicated until the compound was no longer dissolved (the solution was turbid or had suspended particles). The mixture was put into an incubation shaker, maintained at a temperature of (37±1° C.), shaken at 100 r/min for 24 hours, so as to achieve full dissolution equilibrium. After 24 hours, the supernatant was quickly filtered through a 0.45 μm microporous membrane, and the initial filtrate was discarded. 200 μL of the renewed filtrate was taken and diluted with 200 μL of methanol. The assay was repeated at least three times. According to the chromatographic conditions, the sample was injected by LC-MS, and the peak area was measured and the equilibrium solubility of each 2,5-diketopiperazine derivative in pure water was calculated.
# [2] = test system: NCI-H460; assay: Inhibition test on cell proliferation (MTT), NCI-H460; type: cell-based, human; conditions: 72 hours of drug treatment, MTT, read-out: IC50 (nM) NCI-H460
# How it was run: (§1)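 Cells plated at 2000-6000 per well, allowed to adhere for 24 h, then exposed to serially diluted compound for 72 h at 37 °C, 5% CO2. Viability read by MTT reduction, with formazan dissolved in DMSO and absorbance taken at 490 nm. Inhibition rate calculated relative to untreated and zero-setting wells.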
# [3] = test system: BxPC-3; assay: Inhibition test on cell proliferation (MTT), BxPC-3; type: cell-based, human; conditions: 72 hours of drug treatment, MTT, read-out: IC50 (nM) BxPC-3
# How it was run: as §1
# [4] = test system: HCC-LM3; assay: Inhibition test on cell proliferation (MTT), HCC-LM3; type: cell-based, human; conditions: 72 hours of drug treatment, MTT, read-out: IC50 (nM) HCC-LM3
# How it was run: as §1
# [5] = test system: HT-29; assay: Inhibition test on cell proliferation (MTT), HT-29; type: cell-based, human; conditions: 72 hours of drug treatment
# How it was run: as §1
# [6] = test system: β-tubulin; assay: Immunofluorescence experiment, NCI-H460 cell line; type: cell-based, human; conditions: for β-tubulin fluorescence value: NCI-H460 cell line, control 20330 ± 1233; for number of tubulin distributed radially: NCI-H460 cells, in words
# Procedure: (§2) 1. Cell membrane rupture: After the cover slip was shaken to slight dryness, a circle was drawn using a histochemical pen at the position where the cells were evenly distributed in the middle of the cover slip (to prevent the antibody from flowing away). 50 to 100 μL of membrane rupture working solution was added, and incubated at room temperature for 20 min, washed 3 times with PBS, 5 min each time.
# (§3) 2. Serum blocking: BSA was added dropwise in the circle to evenly cover the tissue and block at room temperature for 30 min. (The primary antibody was from goat and blocked with 10% normal rabbit serum, and the primary antibody from other sources was blocked with 3% BSA)
# (§4) 3. Adding the primary antibody: The blocking solution was shaken off gently, and the primary antibody was added dropwise in the cell well plate (prepared in a certain proportion using PBS), and the cell culture plate was placed flat in a humid box and incubated overnight at 4° C.
# (§5) 4. Adding secondary antibody: PBS was added to the cell culture plate, placed on a decolorizing shaker, shaken and washed for 3 times, 5 min each time. After shaking to slight dryness, a secondary antibody corresponding to the species of the primary antibody in the histochemical kit was added dropwise in the circle to cover the tissue, and incubated at room temperature for 50 min.
# (§6) 5. DAPI restaining nucleus: The cover slip was placed in PBS (pH 7.4), shaken and washed 3 times on the decolorizing shaker, 5 min each time. After the cover slip was shaken to slight dryness, DAPI staining solution was added dropwise in the circle, and incubated at room temperature for 10 min in the dark.
# (§7) 6. Sealing the cover slip: The cover slip was placed in PBS (pH 7.4), shaken and washed 3 times on the decolorizing shaker, 5 min each time. After the cover slip was shaken to slight dryness, the cover slip was sealed with antifade mounting medium.
# (§8) 7. Microscopic examination and photographing: The cover slip was observed under a fluorescent microscope and images were collected.
# [7] = test system: β-tubulin; assay: Immunofluorescence experiment, BxPC-3 cell line; type: cell-based, human; conditions: for β-tubulin fluorescence value: BxPC-3 cell line, control 29873 ± 4013; for number of tubulin distributed radially: BxPC-3 cells, in words
# Procedure: as §2, §3, §4, §5, §6, §7, §8
# [8] = test system: NCI-H460 cell line; assay: Cell apoptosis experiment (Annexin V/PI double staining, flow cytometer), NCI-H460; type: cell-based, human; conditions: for Proportion of late apoptotic cells / Proportion of early apoptotic cells: NCI-H460; for Proportion of late apoptotic cells: blank control 0.54%; for Proportion of early apoptotic cells: blank control 1.84%; for number of apoptosis: NCI-H460, in words
# Procedure: (§9) 1. Cell collection: The cell culture dish was taken out, the culture medium was washed with PBS, digested with EDTA-free trypsin, collected into a centrifuge tube. The number of cells per sample was about 1×10^6/mL, and the centrifuge tube was centrifuged at 800 r/min for 3 min, and the culture medium was discarded.
# (§10) 2. The residue was washed twice with frozen PBS, centrifuged at 800 r/min for 3 min each time, and the supernatant was discarded.
# (§11) 3. Blank group, single-stained group and double-stained group were set, and 100 μL of binding buffer was added thereto. 5 μL of FITC-annexin V and 5 μL of PI were chosen according to different groups, mixed gently, incubated at room temperature in the dark for 15 min, then 400 μL of binding buffer was added thereto, and the cells were gently mixed.
# (§12) 4. After filtering the cell suspension with a 300-mesh nylon membrane, the cell suspension was detected by a flow cytometer.
# [9] = test system: BxPC-3 cell line; assay: Cell apoptosis experiment (Annexin V/PI double staining, flow cytometer), BxPC-3; type: cell-based, human; conditions: for Proportion of late apoptotic cells / Proportion of early apoptotic cells: BxPC-3; for Proportion of late apoptotic cells: blank control 0.94%; for Proportion of early apoptotic cells: blank control 1.11%; for number of apoptosis: BxPC-3, in words
# Procedure: as §9, §10, §11, §12
# [10] = Compound solubility experiment, Method 2: about 2 mg salt in 0.2 mL ultrapure water, dissolution observed; type: physicochemical; conditions: 37 °C, thermodynamic from solid, salts, 37±1° C., shaken 24 hours
# Procedure: Method 2: A 0.5 mL brown EP tube was taken, about 2 mg of hydrochloride of derivatives of 2,5-diketopiperazine compounds was weighed respectively, and 0.2 mL of ultrapure water was added thereto. The mixture was vortexed, put into an incubation shaker, maintained at a temperature of (37±1° C.), shaken at 100 r/min for 24 hours, so as to achieve full dissolution equilibrium. The dissolution of the mixture was observed.
solubility at 24 h [10] [µg/mL],IC50 ([2]; hydrochloride) [nM],IC50 ([3]; hydrochloride) [nM],IC50 ([4]; hydrochloride) [nM],IC50 ([5]; hydrochloride) [nM],SMILES,Solubility [1] [µg/mL],"IC50 ([2]; Homo sapiens, NCI-H460, 72 h) [nM]","IC50 ([3]; Homo sapiens, BXPC-3, 72 h) [nM]","IC50 ([4]; Homo sapiens, HCCLM3, 72 h) [nM]","IC50 ([5]; Homo sapiens, HT-29, 72 h) [nM]",β-tubulin fluorescence value [6],β-tubulin fluorescence value [7],Proportion of late apoptotic cells [8] [%],Proportion of early apoptotic cells [8] [%],Proportion of late apoptotic cells [9] [%],Proportion of early apoptotic cells [9] [%],number of tubulin distributed radially [6],number of tubulin distributed radially [7],number of apoptosis [8],number of apoptosis [9]
–,–,–,–,–,"CC(C)(C)c1[nH]cnc1/C=c1\[nH]c(=O)/c(=C/c2ccccc2)[nH]c1=O [Plinabulin, reference compound]",<0.25,11.6 ± 0.96,5.41 ± 0.76,8.31 ± 0.23,5.74 ± 0.73,8133,11000,5.18,1.90,3.85,1.66,–,–,–,–
> 10000,2.28 ± 1.24,1.77 ± 0.03,2.04 ± 0.57,1.56 ± 0.47,"CC(C)c1c(/C=c2\[nH]c(=O)/c(=C/c3cccc(C(=O)c4ccc(F)cc4)c3)[nH]c2=O)ncn1CCCN1CCOCC1 [PLN-2-1-1, (3Z,6Z)-3-(3-(p-Fluorobenzoyl)phenyl)methylene-6-((5-isopropyl-1-(3-morpholinyl)propylimidazol-4-yl)methylene)piperazine-2,5-dione, hydrochloride]",–,–,–,–,–,5344,9533,9.70,3.55,6.79,3.82,significantly reduced,significantly reduced,significantly increased,significantly increased
> 10000,5.6 ± 0.41,–,–,–,"O=C(c1ccc(F)cc1)c1cccc(/C=c2\[nH]c(=O)/c(=C/c3ncn(CCCN4CCOCC4)c3C3CC3)[nH]c2=O)c1 [PLN-2-3-1, (3Z,6Z)-3-(3-(p-Fluorobenzoyl)phenyl)methylene-6-((5-cyclopropyl-1-(3-morpholinyl)propylimidazol-4-yl)methylene)piperazine-2,5-dione, hydrochloride]",–,–,–,–,–,7822,9000,6.76,3.08,5.83,2.75,significantly reduced,significantly reduced,significantly increased,significantly increased
